Literature values as cited in publication PMC7935732 (Targeted Oncology, 2021).

Legend:
CDK 6 = conditions: compared with abemaciclib; cited from earlier work
CDK 4 = conditions: compared with abemaciclib; cited from earlier work

| Structure (SMILES) | Inhibitory potency for CDK 6 (CDK 6) | Inhibitory potency for CDK 4 (CDK 4) |
| --- | --- | --- |
| Cc1nc2c(F)cc(-c3nc(Nc4ccc(CN5CCNCC5)cn4)ncc3F)cc2n1C(C)C [M2] | comparable inhibitory potencies | comparable inhibitory potencies |
| CCN1CCN(Cc2ccc(Nc3ncc(F)c(-c4cc(F)c5nc(CO)n(C(C)C)c5c4)n3)nc2)CC1 [M20] | comparable inhibitory potencies | comparable inhibitory potencies |
